Columns and labels:
[1] = Biodistribution in mouse S180 cells xenografted Kunming mouse tumor at 10 to 20 uCi, iv after 30 mins by gamma counting; type: ADME, organism-based, Neoplasm, CCRF S-180; conditions: in vivo, 0.5 h
[2] = Ratio of drug uptake in tumor to blood of mouse S180 cells xenografted Kunming mouse at 10 to 20 uCi, iv after 5 mins by gamma counting; type: ADME, organism-based, CCRF S-180; conditions: tumour
[3] = Biodistribution in mouse S180 cells xenografted Kunming mouse tumor at 10 to 20 uCi, iv after 120 mins by gamma counting; type: ADME, organism-based, Neoplasm, CCRF S-180; conditions: in vivo, 2 h
[4] = Ratio of drug uptake in tumor to blood of mouse S180 cells xenografted Kunming mouse at 10 to 20 uCi, iv after 15 mins by gamma counting; type: ADME, organism-based, CCRF S-180; conditions: tumour, 0.25 h
[5] = Ratio of drug uptake in tumor to muscle of mouse S180 cells xenografted Kunming mouse at 10 to 20 uCi, iv after 15 mins by gamma counting; type: ADME, organism-based, CCRF S-180; conditions: in vivo, 0.25 h
[6] = Biodistribution in mouse S180 cells xenografted Kunming mouse tumor at 10 to 20 uCi, iv after 60 mins by gamma counting; type: ADME, organism-based, Neoplasm, CCRF S-180; conditions: in vivo, 1 h
Lung [7] = experiment: Biodistribution in mouse S180 cells xenografted Kunming mouse lung at 10 to 20 uCi, iv after 30 mins by gamma counting; type: ADME, organism-based, CCRF S-180; conditions: in vivo, 0.5 h
Kidney [8] = experiment: Biodistribution in mouse S180 cells xenografted Kunming mouse kidney at 10 to 20 uCi, iv after 60 mins by gamma counting; type: ADME, organism-based, CCRF S-180; conditions: in vivo, 1 h
Pancreas [9] = experiment: Biodistribution in mouse S180 cells xenografted Kunming mouse pancreas at 10 to 20 uCi, iv after 60 mins by gamma counting; type: ADME, organism-based, CCRF S-180; conditions: in vivo, 1 h
Heart [10] = experiment: Biodistribution in mouse S180 cells xenografted Kunming mouse heart at 10 to 20 uCi, iv after 60 mins by gamma counting; type: ADME, organism-based, CCRF S-180; conditions: in vivo, 1 h
Kidney [11] = experiment: Biodistribution in mouse S180 cells xenografted Kunming mouse kidney at 10 to 20 uCi, iv after 5 mins by gamma counting; type: ADME, organism-based, CCRF S-180; conditions: in vivo
[12] = Ratio of drug uptake in tumor to muscle of mouse S180 cells xenografted Kunming mouse at 10 to 20 uCi, iv after 30 mins by gamma counting; type: ADME, organism-based, CCRF S-180; conditions: in vivo, 0.5 h
Brain [13] = experiment: Biodistribution in mouse S180 cells xenografted Kunming mouse brain at 10 to 20 uCi, iv after 60 mins by gamma counting; type: ADME, organism-based, CCRF S-180; conditions: in vivo, 1 h
[14] = Ratio of drug uptake in tumor to blood of mouse S180 cells xenografted Kunming mouse at 10 to 20 uCi, iv after 60 mins by gamma counting; type: ADME, organism-based, CCRF S-180; conditions: tumour, 1 h
Muscle tissue [15] = experiment: Biodistribution in mouse S180 cells xenografted Kunming mouse muscle at 10 to 20 uCi, iv after 30 mins by gamma counting; type: ADME, organism-based, CCRF S-180; conditions: in vivo, 0.5 h
[16] = Ratio of drug uptake in tumor to brain of mouse S180 cells xenografted Kunming mouse at 10 to 20 uCi, iv after 15 mins by gamma counting; type: ADME, organism-based, CCRF S-180; conditions: in vivo, 0.25 h
Muscle tissue [17] = experiment: Biodistribution in mouse S180 cells xenografted Kunming mouse muscle at 10 to 20 uCi, iv after 60 mins by gamma counting; type: ADME, organism-based, CCRF S-180; conditions: in vivo, 1 h
Lung [18] = experiment: Biodistribution in mouse S180 cells xenografted Kunming mouse lung at 10 to 20 uCi, iv after 120 mins by gamma counting; type: ADME, organism-based, CCRF S-180; conditions: in vivo, 2 h
Liver [19] = experiment: Biodistribution in mouse S180 cells xenografted Kunming mouse liver at 10 to 20 uCi, iv after 30 mins by gamma counting; type: ADME, organism-based, CCRF S-180; conditions: in vivo, 0.5 h
Heart [20] = experiment: Biodistribution in mouse S180 cells xenografted Kunming mouse heart at 10 to 20 uCi, iv after 30 mins by gamma counting; type: ADME, organism-based, CCRF S-180; conditions: in vivo, 0.5 h
Liver [21] = experiment: Biodistribution in mouse S180 cells xenografted Kunming mouse liver at 10 to 20 uCi, iv after 15 mins by gamma counting; type: ADME, organism-based, CCRF S-180; conditions: in vivo, 0.25 h
Heart [22] = experiment: Biodistribution in mouse S180 cells xenografted Kunming mouse heart at 10 to 20 uCi, iv after 120 mins by gamma counting; type: ADME, organism-based, CCRF S-180; conditions: in vivo, 2 h
Pancreas [23] = experiment: Biodistribution in mouse S180 cells xenografted Kunming mouse pancreas at 10 to 20 uCi, iv after 5 mins by gamma counting; type: ADME, organism-based, CCRF S-180; conditions: in vivo
Lung [24] = experiment: Biodistribution in mouse S180 cells xenografted Kunming mouse lung at 10 to 20 uCi, iv after 60 mins by gamma counting; type: ADME, organism-based, CCRF S-180; conditions: in vivo, 1 h
Blood [25] = experiment: Biodistribution in mouse S180 cells xenografted Kunming mouse blood at 10 to 20 uCi, iv after 5 mins by gamma counting; type: ADME, organism-based, CCRF S-180; conditions: in vivo
[26] = Ratio of drug uptake in tumor to blood of mouse S180 cells xenografted Kunming mouse at 10 to 20 uCi, iv after 120 mins by gamma counting; type: ADME, organism-based, CCRF S-180; conditions: tumour, 2 h
Blood [27] = experiment: Biodistribution in mouse S180 cells xenografted Kunming mouse blood at 10 to 20 uCi, iv after 60 mins by gamma counting; type: ADME, organism-based, CCRF S-180; conditions: in vivo, 1 h
Pancreas [28] = experiment: Biodistribution in mouse S180 cells xenografted Kunming mouse pancreas at 10 to 20 uCi, iv after 120 mins by gamma counting; type: ADME, organism-based, CCRF S-180; conditions: in vivo, 2 h
Lung [29] = experiment: Biodistribution in mouse S180 cells xenografted Kunming mouse lung at 10 to 20 uCi, iv after 5 mins by gamma counting; type: ADME, organism-based, CCRF S-180; conditions: in vivo
Kidney [30] = experiment: Biodistribution in mouse S180 cells xenografted Kunming mouse kidney at 10 to 20 uCi, iv after 120 mins by gamma counting; type: ADME, organism-based, CCRF S-180; conditions: in vivo, 2 h
Muscle tissue [31] = experiment: Biodistribution in mouse S180 cells xenografted Kunming mouse muscle at 10 to 20 uCi, iv after 15 mins by gamma counting; type: ADME, organism-based, CCRF S-180; conditions: in vivo, 0.25 h
Lung [32] = experiment: Biodistribution in mouse S180 cells xenografted Kunming mouse lung at 10 to 20 uCi, iv after 15 mins by gamma counting; type: ADME, organism-based, CCRF S-180; conditions: in vivo, 0.25 h
Kidney [33] = experiment: Biodistribution in mouse S180 cells xenografted Kunming mouse kidney at 10 to 20 uCi, iv after 30 mins by gamma counting; type: ADME, organism-based, CCRF S-180; conditions: in vivo, 0.5 h
Brain [34] = experiment: Biodistribution in mouse S180 cells xenografted Kunming mouse brain at 10 to 20 uCi, iv after 120 mins by gamma counting; type: ADME, organism-based, CCRF S-180; conditions: in vivo, 2 h
Brain [35] = experiment: Biodistribution in mouse S180 cells xenografted Kunming mouse brain at 10 to 20 uCi, iv after 15 mins by gamma counting; type: ADME, organism-based, CCRF S-180; conditions: in vivo, 0.25 h
[36] = Biodistribution in mouse S180 cells xenografted Kunming mouse tumor at 10 to 20 uCi, iv after 15 mins by gamma counting; type: ADME, organism-based, Neoplasm, CCRF S-180; conditions: in vivo, 0.25 h
[37] = Ratio of drug uptake in tumor to brain of mouse S180 cells xenografted Kunming mouse at 10 to 20 uCi, iv after 60 mins by gamma counting; type: ADME, organism-based, CCRF S-180; conditions: in vivo, 1 h
[38] = Ratio of drug uptake in tumor to muscle of mouse S180 cells xenografted Kunming mouse at 10 to 20 uCi, iv after 5 mins by gamma counting; type: ADME, organism-based, CCRF S-180; conditions: in vivo
[39] = Ratio of drug uptake in tumor to muscle of mouse S180 cells xenografted Kunming mouse at 10 to 20 uCi, iv after 120 mins by gamma counting; type: ADME, organism-based, CCRF S-180; conditions: in vivo, 2 h
Heart [40] = experiment: Biodistribution in mouse S180 cells xenografted Kunming mouse heart at 10 to 20 uCi, iv after 15 mins by gamma counting; type: ADME, organism-based, CCRF S-180; conditions: in vivo, 0.25 h
[41] = Ratio of drug uptake in tumor to brain of mouse S180 cells xenografted Kunming mouse at 10 to 20 uCi, iv after 120 mins by gamma counting; type: ADME, organism-based, CCRF S-180; conditions: in vivo, 2 h
Blood [42] = experiment: Biodistribution in mouse S180 cells xenografted Kunming mouse blood at 10 to 20 uCi, iv after 15 mins by gamma counting; type: ADME, organism-based, CCRF S-180; conditions: in vivo, 0.25 h
Liver [43] = experiment: Biodistribution in mouse S180 cells xenografted Kunming mouse liver at 10 to 20 uCi, iv after 60 mins by gamma counting; type: ADME, organism-based, CCRF S-180; conditions: in vivo, 1 h

Compound: CCCc1nc2c(C)cc(C(=O)O)cc2n1CC[18F]
- Drug uptake [1]: 1.49 % ID/g
- Ratio [2]: 0.72
- Drug uptake [3]: 0.49 % ID/g
- Ratio [4]: 0.63
- Ratio [5]: 1.16
- Drug uptake [6]: 1.36 % ID/g
- Drug uptake (Lung [7]): 3.49 % ID/g
- Drug uptake (Kidney [8]): 4.2 % ID/g
- Drug uptake (Pancreas [9]): 0.67 % ID/g
- Drug uptake (Heart [10]): 1.08 % ID/g
- Drug uptake (Kidney [11]): 35.9 % ID/g
- Ratio [12]: 1.27
- Drug uptake (Brain [13]): 0.19 % ID/g
- Ratio [14]: 1.43
- Drug uptake (Muscle tissue [15]): 1.17 % ID/g
- Ratio [16]: 3.2
- Drug uptake (Muscle tissue [17]): 0.62 % ID/g
- Drug uptake (Lung [18]): 0.66 % ID/g
- Drug uptake (Liver [19]): 2.53 % ID/g
- Drug uptake (Heart [20]): 1.76 % ID/g
- Drug uptake (Liver [21]): 4.02 % ID/g
- Drug uptake (Heart [22]): 0.26 % ID/g
- Drug uptake (Pancreas [23]): 2.33 % ID/g
- Drug uptake (Lung [24]): 2.35 % ID/g
- Drug uptake (Blood [25]): 3.17 % ID/g
- Ratio [26]: 1.63
- Drug uptake (Blood [27]): 0.95 % ID/g
- Drug uptake (Pancreas [28]): 0.2 % ID/g
- Drug uptake (Lung [29]): 8.33 % ID/g
- Drug uptake (Kidney [30]): 1.1 % ID/g
- Drug uptake (Muscle tissue [31]): 1.22 % ID/g
- Drug uptake (Lung [32]): 5.44 % ID/g
- Drug uptake (Kidney [33]): 7.4 % ID/g
- Drug uptake (Brain [34]): 0.05 % ID/g
- Drug uptake (Brain [35]): 0.44 % ID/g
- Drug uptake [36]: 1.41 % ID/g
- Ratio [37]: 7.15
- Ratio [38]: 1.28
- Ratio [39]: 2.58
- Drug uptake (Heart [40]): 2.66 % ID/g
- Ratio [41]: 9.8
- Drug uptake (Blood [42]): 2.25 % ID/g
- Drug uptake (Liver [43]): 1.55 % ID/g

Source: ChEMBL document CHEMBL1156163, “(18)F Labeled benzimidazole derivatives as potential radiotracer for positron emission tomography (PET) tumor imaging” (Bioorg Med Chem, 2010)
